Experiment [1] concerns the target Platelet-derived growth factor receptor beta (Mus musculus, UniProt P05622). Put plainly: Inhibition of endogenous PDGFRbeta autophosphorylation in Swiss 3T3 fibroblasts.
In experiment [2] the target is T1, Receptor-type tyrosine-protein kinase FLT3 (Homo sapiens, UniProt P36888).
T1 sequence (P36888 whole entry): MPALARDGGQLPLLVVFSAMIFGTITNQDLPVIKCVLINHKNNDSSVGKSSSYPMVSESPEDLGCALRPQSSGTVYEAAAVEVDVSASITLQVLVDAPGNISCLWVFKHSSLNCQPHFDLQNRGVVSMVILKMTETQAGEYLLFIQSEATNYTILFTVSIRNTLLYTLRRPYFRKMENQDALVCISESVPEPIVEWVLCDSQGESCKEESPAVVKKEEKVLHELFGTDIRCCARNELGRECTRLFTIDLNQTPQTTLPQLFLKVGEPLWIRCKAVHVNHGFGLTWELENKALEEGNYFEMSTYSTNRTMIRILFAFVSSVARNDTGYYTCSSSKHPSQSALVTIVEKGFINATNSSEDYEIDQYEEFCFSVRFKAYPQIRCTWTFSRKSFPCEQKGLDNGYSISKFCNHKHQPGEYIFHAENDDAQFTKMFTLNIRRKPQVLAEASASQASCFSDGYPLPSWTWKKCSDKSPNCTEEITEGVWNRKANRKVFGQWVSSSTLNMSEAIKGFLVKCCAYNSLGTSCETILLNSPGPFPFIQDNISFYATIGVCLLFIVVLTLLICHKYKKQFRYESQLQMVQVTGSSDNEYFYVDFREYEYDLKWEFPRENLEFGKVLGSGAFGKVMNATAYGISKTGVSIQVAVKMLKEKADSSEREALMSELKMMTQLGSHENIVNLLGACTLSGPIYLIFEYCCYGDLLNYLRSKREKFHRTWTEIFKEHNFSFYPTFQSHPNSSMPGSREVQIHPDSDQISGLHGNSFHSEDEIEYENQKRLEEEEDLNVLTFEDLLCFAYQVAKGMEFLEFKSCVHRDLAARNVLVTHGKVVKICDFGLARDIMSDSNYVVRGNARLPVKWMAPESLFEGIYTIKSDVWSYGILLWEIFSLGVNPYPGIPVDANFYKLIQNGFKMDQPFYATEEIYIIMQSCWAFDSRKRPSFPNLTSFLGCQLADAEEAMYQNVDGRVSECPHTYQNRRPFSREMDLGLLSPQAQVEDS
Put plainly: Inhibition of endogenous FLT3 autophosphorylation in EOL1 cells. The format is cell-based.

Usually IC50 stands for the midpoint of a concentration-inhibition curve. Read a low IC50 as inhibition by little substance.

Bounds are passed on as bounds.

Sequence of Platelet-derived growth factor receptor beta (P05622 whole entry): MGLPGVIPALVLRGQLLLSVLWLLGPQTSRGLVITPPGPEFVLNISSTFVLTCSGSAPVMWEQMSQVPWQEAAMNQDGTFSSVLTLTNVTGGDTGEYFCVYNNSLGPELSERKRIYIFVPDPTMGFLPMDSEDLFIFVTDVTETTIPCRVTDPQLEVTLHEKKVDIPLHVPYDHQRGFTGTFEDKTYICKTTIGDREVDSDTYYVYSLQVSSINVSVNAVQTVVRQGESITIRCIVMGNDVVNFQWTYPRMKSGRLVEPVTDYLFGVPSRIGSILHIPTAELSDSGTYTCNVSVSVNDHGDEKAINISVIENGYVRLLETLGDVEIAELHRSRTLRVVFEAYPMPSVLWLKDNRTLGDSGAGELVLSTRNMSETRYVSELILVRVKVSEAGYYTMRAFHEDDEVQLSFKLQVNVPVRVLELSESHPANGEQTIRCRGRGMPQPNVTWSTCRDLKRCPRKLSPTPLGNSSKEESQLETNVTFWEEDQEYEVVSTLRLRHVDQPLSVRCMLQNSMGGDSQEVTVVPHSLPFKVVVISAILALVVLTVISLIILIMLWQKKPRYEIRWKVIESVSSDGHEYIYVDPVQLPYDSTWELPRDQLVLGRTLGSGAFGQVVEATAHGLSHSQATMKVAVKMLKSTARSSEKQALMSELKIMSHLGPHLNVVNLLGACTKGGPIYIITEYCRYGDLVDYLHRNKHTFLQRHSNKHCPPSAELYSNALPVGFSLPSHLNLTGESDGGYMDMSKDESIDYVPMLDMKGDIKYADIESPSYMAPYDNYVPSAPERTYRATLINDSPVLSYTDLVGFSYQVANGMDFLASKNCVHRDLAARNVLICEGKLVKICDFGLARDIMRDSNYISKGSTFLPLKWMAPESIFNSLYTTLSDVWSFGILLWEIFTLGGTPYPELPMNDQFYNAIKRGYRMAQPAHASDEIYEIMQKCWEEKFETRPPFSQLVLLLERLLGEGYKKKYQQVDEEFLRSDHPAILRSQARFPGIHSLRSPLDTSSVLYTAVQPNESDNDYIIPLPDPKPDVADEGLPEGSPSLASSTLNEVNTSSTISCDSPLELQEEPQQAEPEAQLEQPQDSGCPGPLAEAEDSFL

With `O=C(c1cc2ccccc2o1)c1cc2ccccc2o1`, the IC50 in experiment [1] came to 1.2 µM.

Regarding `CC(=O)Oc1ccc2oc(C(=O)c3cc4cc(OC(C)=O)ccc4o3)cc2c1`, half-maximal inhibition in experiment [1] (IC50) required 0.7 µM. As to `COc1cccc2oc(C(=O)c3cc4c(OC)cccc4o3)cc12`, the IC50 in experiment [1] and in experiment [2] was greater than 30 µM each time. Turning to `Cc1cc2ncc(-c3ccccc3)nc2cc1C` [AG1295], the IC50 in experiment [1] worked out at 5.4 µM.

For `O=C(c1cc2cccc(O)c2o1)c1cc2cccc(O)c2o1`, the IC50 in experiment [1] was 20 µM; in experiment [2] it was greater than 30 µM.

Regarding `COc1cccc2cc(C(=O)c3cc4cccc(OC)c4o3)oc12`, the IC50 in experiment [1] and in experiment [2] was greater than 30 µM each time. `COc1ccc2cc(C(=O)c3cc4ccc(OC)cc4o3)oc2c1`: the IC50 in experiment [1] and in experiment [2] was greater than 30 µM each time. `Nc1ccc2oc(C(=O)c3cc4cc(N)ccc4o3)cc2c1` yielded a half-inhibitory concentration (IC50) in experiment [1] of 1.2 µM. On the same count and under the same terms, then `O=C(c1cc2cc(O)ccc2o1)c1cc2cc(O)ccc2o1`, with 0.6 µM; and `O=C(c1cc2ccccc2[nH]1)c1cc2ccccc2o1`, with 1.07 µM. Still for that read-out and setting: then `O=C(c1cc2cc(O)ccc2[nH]1)c1cc2cc(O)ccc2o1`, with 0.2 µM. Regarding `COc1ccc2oc(C(=O)c3cc4cc(OC)ccc4o3)cc2c1`, the IC50 was 1 µM in experiment [1] and greater than 30 µM in experiment [2].

As for `O=C(c1cc2ccc(O)cc2o1)c1cc2ccc(O)cc2o1`, it took 9.7 µM to reach half-maximal inhibition in experiment [1] (IC50). This counts as single-digit micromolar.

For the origin of these results see ChEMBL document CHEMBL1142902, “Inhibition of FLT3 and PDGFR tyrosine kinase activity by bis(benzo[b]furan-2-yl)methanones” (Bioorg Med Chem, 2007).
